Structures are written as SMILES. Residues, ends and D or L forms follow the SMILES beside them. *: point of attachment. Benzoyl(4-SO2NH2) = NS(=O)(=O)c1ccc(C(=O)*)cc1

One assay addresses wild-type hCAII protein (Homo sapiens, UniProt P00918). The experiment in a line: colorimetric IC50 assay (pNPA hydrolysis) with wild-type hCAII. It is filed as biochemical. The note with it: for Fold Enhancement: relative to NTM M64; for IC50: 300 nM wild-type hCAII. The procedure: The colorimetric assay used 300 nM of wild-type carbonic anhydrase incubated in 45 μL of 50 mM MOPS (pH 7.5), 33 mM Na2SO4, and 1 mM EDTA aliquoted into a 96-well, clear, flat-bottom plate. To each column of the plate, a 1/10 dilution series from 1 mM to 0.1 nM of each NTM was added and incubated at 25° C. for 10 minutes to reach binding equilibrium. To this, 1 mM p-nitrophenylacetate (pNPA) was added to each well and screened on a plate reader at 405 nm wavelength. The initial rate of hydrolysis was observed over the first 60 seconds. The slopes versus the concentration of NTM were put into a non-linear regression equation to determine the IC50 of the NTM to the carbonic anhydrase.
The N-terminally modified peptides were then evaluated using colorimetric IC50 assay to determine relative binding affinity of NTM-AAEIR to wild-type hCAII protein based on NTM-AAEIR inhibition capacity. The slopes versus the concentration of NTM-AAEIR were put into a non-linear regression equation to determine the IC50 of the selected NTM-AAEIR peptides to the wild-type hCAII.

For assay [1], the target named is human carbonic anhydrase II (hCAII) (Homo sapiens, UniProt P00918). The experiment in a line: hCAII functional assay (hydrolysis of p-nitrophenylacetate, pNP release). It is filed as biochemical. The note with it: 1 μM hCAII, 500 μM pNP-OAc, 10 min at 37° C. The procedure:
A functional assay for hCAII enzyme was set up. Carbonic anhydrase catalyzes the hydrolysis of 4-nitrophenyl acetate (4-NPA) to nitrophenol, which can be monitored by absorbance at 400 nm. The enzymatic carbonic anhydrase assay generally includes 0.2-1.0 μM enzyme and 10-500 μM 4-NPA in 20-200 μL in assay buffer. […] Metal chelating agents (EDTA or EGTA), salt (NaCl, sulfate), detergent (Tween or Triton), and organic additives (acetonitrile, DMSO) may be employed to facilitate enzyme stability and reagent solubility. For the assay, 1 μM human carbonic anhydrase II, 50 mM MOPS (pH 7.6), 33 mM disodium sulfate, and 1 mM EDTA. To generate NTM-modified peptides, azide-derivatized peptides (via azide-PEG-amine and carbodiimide coupling to C-terminus of peptide) were conjugated to DBCO-coupled beads. […] To evaluate P1 dependence of the binding reaction, multiple P1 residues has been tested.

Broadly, the IC50 is the midpoint of a concentration-inhibition curve. Read a high IC50 as weaker potency in that assay. On to `NS(=O)(=O)c1ccc(C(=O)O)cc1F` [M88, 3-Fluoro-4-sulfamoylbenzoic acid], for which, at wild-type hCAII protein (NTM-AAEIR), the “Fold Enhancement” value is reported as 1.6. For the same molecule, on wild-type hCAII protein (free NTM), the IC50 was 110 nM and the “Fold Enhancement” value is 4.3.

As for `NS(=O)(=O)c1ccc(C(=O)O)c(F)c1` [M75, 2-Fluoro-4-sulfamoylbenzoic acid], the “Fold Enhancement” value on wild-type hCAII protein (NTM-AAEIR) is given as 2.2. Also, on wild-type hCAII protein (free NTM), the IC50 turned out to be 224 nM and the “Fold Enhancement” value stood at 2.1.

`NS(=O)(=O)c1ccc(C(=O)O)c([N+](=O)[O-])c1` [M67, 2-Nitro-4-sulfamoylbenzoic acid]: the “Fold Enhancement” value at wild-type hCAII protein (NTM-AAEIR) is 2.0. Further, on wild-type hCAII protein (free NTM), inhibition was half-maximal at 124 nM (IC50) and the “Fold Enhancement” value is 3.8.

On to `NS(=O)(=O)c1ccc(C(=O)O)nc1` [M66], for which, on wild-type hCAII protein (free NTM), it took 992 nM to reach half-maximal inhibition (IC50) and the “Fold Enhancement” value was determined as 0.5.

Consider `Nc1cc(S(N)(=O)=O)ccc1C(=O)O` [2-NH2, 2-Amino-4-sulfamoylbenzoic acid], for which, at wild-type hCAII protein (free NTM), it took 1380 nM to reach half-maximal inhibition (IC50) and the “Fold Enhancement” value turned out to be 0.3.

On to `C[C@H](NC(=O)[C@H](C)NC(=O)[C@H](Cc1ccccc1)NC(=O)c1ccc(S(N)(=O)=O)cc1)C(=O)N[C@@H](C)C(=O)N[C@@H](CCC(=O)O)C(N)=O` [(SAB)FAAAE] ({Benzoyl(4-SO2NH2)}-FAAAE-NH2), for which the IC50 in assay [1] is 45 nM.

As to `Cc1cc(S(N)(=O)=O)ccc1C(=O)O` [M74, 2-methyl-4-sulfamoylbenzoic acid], on wild-type hCAII protein (free NTM), the IC50 was found to be 2040 nM and the “Fold Enhancement” value turned out to be 0.2.

Molecule `C[C@H](NC(=O)c1ccc(S(N)(=O)=O)cc1)C(=O)N[C@@H](Cc1ccccc1)C(=O)N[C@@H](C)C(=O)N[C@@H](C)C(=O)N[C@@H](CCC(=O)O)C(N)=O` [(SAB)AFAAE] ({Benzoyl(4-SO2NH2)}-AFAAE-NH2) registered an IC50 in assay [1] of 183 nM.

Turning to `COc1cc(S(N)(=O)=O)ccc1C(=O)O` [M73, 2-Methoxy-4-sulfamoylbenzoic acid], at wild-type hCAII protein (free NTM), the IC50 stood at 65400 nM and the “Fold Enhancement” value turned out to be 0.0.

Consider `NS(=O)(=O)c1ccc(C(=O)O)cn1` [M65, 6-Sulfamoylpyridine-3-carboxylic acid], for which the “Fold Enhancement” value at wild-type hCAII protein (NTM-AAEIR) is on record as 0.3. For the same molecule, at wild-type hCAII protein (free NTM), half-maximal inhibition (IC50) required 211 nM and the “Fold Enhancement” value came out at 2.2.

On to `NS(=O)(=O)c1ccc(C(=O)O)c(Cl)c1` [M76, 2-Chloro-4-sulfamoylbenzoic acid], for which the “Fold Enhancement” value on wild-type hCAII protein (NTM-AAEIR) stood at 1.9. Also, on wild-type hCAII protein (free NTM), the IC50 worked out at 180 nM and the “Fold Enhancement” value was 2.6.
